Data taken from patent publication US7094801B2, “Chalcone derivatives and their use to treat diseases” (Atherogenics, Inc., priority 2001, dated 2006).
Structures can show the parent of a compound that is named as a salt.

Structure (SMILES)	melting point
O=C([O-])c1ccc(/C=C/C(=O)c2ccc(-c3cccs3)cc2)cc1.[Na+] [Example 17, 4-[3-{4-(thien-2-yl)-phenyl}-3-oxo-E-propenyl]-benzoic acid, sodium salt]	> 260 °C
COc1cc(OC)c(-c2cc3ccccc3s2)cc1/C=C/C(=O)c1ccc(C(=O)[O-])cc1.[Na+] [Example 56, 4-[3E-(5-Benzo[b]thiophen-2-yl-2,4-dimethoxy-phenyl)-acryloyl]-benzoic acid, sodium salt]	> 235 °C
COc1cc(OCCC2CCCN2C)c(/C=C/C(=O)c2ccc(C(=O)O)cc2)cc1-c1cccs1.Cl (centres unmarked) [Example 73, 4-(3E-{4-Methoxy-2-[2-(1-methyl-pyrrolidin-2-yl)-ethoxy]-5-thiophen-2-yl-phenyl}-acryloyl)-benzoic acid, hydrochloride]	206 to 208 °C
COc1cc(OCCN2CCOCC2)c(/C=C/C(=O)c2ccc(S(N)(=O)=O)cc2)cc1-c1cccs1.Cl	235 °C (dec.)
COc1cc(OCC(=O)N2CCOCC2)c(/C=C/C(=O)c2ccc(C(=O)O)cc2)cc1-c1cccs1 [Example 72, 4-{3E-[4-Methoxy-2-(2-morpholin-4-yl-2-oxo-ethoxy)-5-thiophen-2-yl-phenyl]-acryloyl}-benzoic acid]	231 to 233 °C
COc1cc(OC(C)(C)C(=O)O)c(/C=C/C(=O)c2ccc(S(N)(=O)=O)cc2)cc1-c1cccs1 [Example 82, 2-{5-Methoxy-2-[3-oxo-3-(4-aminosulfonyl-phenyl)-E-propenyl]-4-thiophen-2-yl-phenoxy}-2-methyl-propionic acid]	164 to 165 °C
O=C(O)CNC(=O)Nc1ccc(C(=O)/C=C/c2ccc(-c3cccs3)cc2)cc1 [Example 97, 4(3E-{4-[3-(4-Thiophen-2-yl-phenyl)-acryloyl]-phenyl}-ureido)-acetic acid]	222 to 225 °C

Further lines, results first:

melting point	Structure (SMILES)
75 to 80 °C	COc1cc(OC)c(-c2cc3ccccc3s2)cc1/C=C/C(=O)c1ccc(C(=O)O)cc1 (as salt: salt) [Example 120, 4-[3E-(5-Benzo[b]thien-2-yl-2,4-dimethoxyphenyl)-acryloyl]-benzoic acid, N-methyl-D-glucamine salt]
152 to 153 °C	NS(=O)(=O)c1ccc(C(=O)/C=C/c2cccc(C3CC=CO3)c2)cc1 (centres unmarked) [Example 119, 4-{3-[3E-(2,3-Dihydro-furan-2-yl)-phenyl]-acryloyl}-benzenesulfonamide]
> 240 °C	COc1cc(OC)c(-c2c[nH]c(C3CC3)n2)cc1/C=C/C(=O)c1ccc(C(=O)O)cc1.Cl [Example 105, 4-{3E-[5-(2-Cyclopropyl-1H-imidazol-4-yl)-2,4-dimethoxy-phenyl]-acryloyl}-benzoic acid, hydrochloride]
> 240 °C	COc1cc(OC)c(-c2nncn2CC(C)C)cc1/C=C/C(=O)c1ccc(S(N)(=O)=O)cc1 [Example 109, 4-{3E-[5-(4-Isobutyl-4H-[1,2,4]triazol-3-yl)-2,4-dimethoxy-phenyl]-acryloyl}-benzenesulfonamide]
253 to 255 °C	COc1cc(OC)c(-c2cccnc2)cc1/C=C/C(=O)c1ccc(S(N)(=O)=O)cc1 [Example 104, 4-[3E-(2,4-Dimethoxy-5-pyridin-3-yl-phenyl)-acryloyl]-benzenesulfonamide]
127 to 128 °C	COc1cc(OC)c(-c2cc3ccccc3s2)cc1/C=C/C(=O)c1ccc(S(=O)(=O)c2ccccc2)cc1 [Example 107, 1-(4-Benzenesulfonyl-phenyl)-3E-(5-benzo[b]thiophen-2-yl-2,4-dimethoxy-phenyl)-propenone]
164 to 165 °C	COc1cc(Oc2cccc(C)n2)c(/C=C/C(=O)c2ccc(S(N)(=O)=O)cc2)cc1-c1cccs1 [Example 122, 4-{3E-[4-Methoxy-2-(6-methyl-pyridin-2-yloxy)-5-thiophen-2-yl-phenyl]-acryloyl}-benzenesulfonamide]
